Measurements as given in article PMC13266999, “Designing Antibiotics with Inherent Resistance to Efflux as a Strategy to Revive Discovery against Multidrug-Resistant Pathogens” (Journal of Medicinal Chemistry, 2026).
Values after ≈ are worked out from the molar mass of the structure shown. Where two headings read alike, the source gives them in different places.

Assays:
E. faecium = experiment: MIC (microbroth dilution); format: cell-based, Enterococcus faecium
Method: (§1) All bacteria were maintained on tryptic soy agar (TSA), except Streptococcus spp., which were maintained on Columbia agar plates containing 5% horse blood. All bacterial assays were carried out in tryptic soy broth (TSB), except for Streptococcus spp. which were grown in cation-adjusted Mueller Hinton broth containing 2.5% lysed horse blood. Bacteria were grown to stationary phase in liquid culture overnight, with shaking at 200 rpm, before being back diluted to the relevant starting concentration for each assay below. MICs were measured by the microbroth dilution method. […] Absorbance at OD600 was read on a CLARIOstar spectrophotometer (BMG Labtech) and the MIC was defined as the minimum concentration of compound where no visible growth was detected. The compounds were prepared as a DMSO stock and equivalent concentrations of DMSO had no effect on bacterial growth. MICs were also performed in the presence of the outer membrane permeator, polymyxin b nonapeptide (PMBN) following the same MIC method but with the following variation. The 2-fold dilution series of compound was prepared as above, then 50 μL of PMBN at a final concentration of 30 μg/mL was added to relevant wells, while 50 μL/well of blank media was added to the remaining wells. Bacteria were then added at 50 μL/well for a starting concentration as above. Thirty μg/mL of PMBN had no effect on bacterial growth. The MICs were read and defined as above. All animal procedures were performed by the contract research organization Pharmacology Discovery Services Taiwan in accordance with the Guide for the Care and Use of Laboratory Animals. The procedures were approved by the Institutional Ethics Committee of Pharmacology Discovery Services Taiwan, Ltd. (approval no. AB127662), in compliance with animal welfare legislation in Taiwan.

E. coli = experiment: MIC (microbroth dilution); format: cell-based; conditions: Escherichia coli
Method: as §1, with “All bacterial assays were carried out in tryptic soy broth (TSB), except for Streptococcus spp. which were grown in cation-adjusted Mueller Hinton broth containing 2.5% lysed horse blood.” left out, “The compounds were prepared as a DMSO stock and equivalent concentrations of DMSO had no effect on bacterial growth.” left out, “Thirty μg/mL of PMBN had no effect on bacterial growth.” left out

S. haemolyticus = experiment: MIC (microbroth dilution); format: cell-based, Staphylococcus haemolyticus; conditions: SH324
Method: as §1

S. aureus NCTC 13616 = experiment: Time-kill assay; format: cell-based; conditions: 4x MIC, 24 hours
Method: Time-kill assays were performed as defined previously.

E. faecalis = experiment: MIC (microbroth dilution); format: cell-based, Enterococcus faecalis
Method: as §1, with “All bacterial assays were carried out in tryptic soy broth (TSB), except for Streptococcus spp. which were grown in cation-adjusted Mueller Hinton broth containing 2.5% lysed horse blood.” left out, “The compounds were prepared as a DMSO stock and equivalent concentrations of DMSO had no effect on bacterial growth.” left out, “Thirty μg/mL of PMBN had no effect on bacterial growth.” left out

A. baumannii = A. baumannii efflux chequerboard assay; format: cell-based, Acinetobacter baumannii; conditions: for MIC: Acinetobacter baumannii
Method: Checkerboard assays were performed by preparing two separate 2-fold dilution series of compounds in two 96 well plates, one horizontally, one vertically. […] Plates were incubated at 37 C for 20 h and the absorbance (OD600) was read on a CLARIOstar spectrophotometer (BMG Labtech). The fractional inhibitory concentration was calculated as follows: ΣFIC = [(MIC of A in combination)/(MIC of A alone)] + [(MIC of B in combination)/(MIC of B alone)].

Pseudomonas aeruginosa = experiment: MIC (microbroth dilution); format: cell-based
Method: as §1

Acinetobacter baumannii = experiment: MIC (microbroth dilution); format: cell-based
Method: as §1

## O=C(O)c1cn(C2CC2)c2cc(N3CCNCC3)c(F)cc2c1=O [Ciprofloxacin, ciprofloxacin, reference compound]
E. faecium; EF205
  MIC: 128 µg/mL (≈ 386 µM)
E. faecium; NCTC 12204
  MIC: 1 µg/mL (≈ 3.02 µM)
E. coli; 319238/UR
  MIC: > 128 µg/mL
E. coli; LEC077
  MIC: 0.25 µg/mL (≈ 0.754 µM)
E. coli; LEC081
  MIC: 0.25 µg/mL (≈ 0.754 µM)
S. haemolyticus
  MIC: 16 µg/mL (≈ 48.3 µM)
S. aureus NCTC 13616
  time-kill profile: comparable bacteriostatic profiles
E. faecalis; EF602
  MIC: 64 µg/mL (≈ 193 µM)
E. faecalis; Enterococcus faecalis, NCTC775, NCTC 775, read-out: MIC
  MIC: 1 µg/mL (≈ 3.02 µM)
E. faecalis; Enterococcus faecalis, NCTC12204, NCTC 12204, read-out: MIC
  MIC: 1 µg/mL (≈ 3.02 µM)
E. faecalis; NCTC 775
  MIC: 1 µg/mL (≈ 3.02 µM)
A. baumannii; A. baumannii ATCC 17978
  MIC +50 (0.25x MIC): 0.0017 to 0.188 µg/mL
  MIC +50 (0.5x MIC): 0.007 to 0.055 µg/mL
A. baumannii; A. baumannii AYE
  MIC +50 (0.25x MIC): 3.5 to 15.5 µg/mL
  MIC +50 (0.5x MIC): 0.188 to 0.9 µg/mL
A. baumannii; ATCC17978, read-out: MIC alone
  MIC: 0.25 µg/mL
A. baumannii; read-out: MIC alone
  MIC: 64 µg/mL
Pseudomonas aeruginosa; NCTC 13437
  MIC: 64 µg/mL (≈ 193 µM)
Pseudomonas aeruginosa; Pseudomonas aeruginosa, PAO1, PAO1
  MIC: 0.25 µg/mL (≈ 0.754 µM)
Acinetobacter baumannii; Acinetobacter baumannii, 86, oxa23
  MIC: 128 µg/mL (≈ 386 µM)
Acinetobacter baumannii; Acinetobacter baumannii, 96, oxa23
  MIC: 128 µg/mL (≈ 386 µM)
Acinetobacter baumannii; Acinetobacter baumannii, A318
  MIC: 32 µg/mL (≈ 96.6 µM)
Acinetobacter baumannii; Acinetobacter baumannii, A319
  MIC: 32 µg/mL (≈ 96.6 µM)
Acinetobacter baumannii; Acinetobacter baumannii, A600 colR
  MIC: 32 µg/mL (≈ 96.6 µM)
Acinetobacter baumannii; Acinetobacter baumannii, AB01335 adeG183::T26
  MIC: 4 µg/mL (≈ 12.1 µM)
Acinetobacter baumannii; Acinetobacter baumannii, AB05215 adeS132::T26
  MIC: 2 µg/mL (≈ 6.04 µM)
Acinetobacter baumannii; Acinetobacter baumannii, AB05218 adeS141::T26
  MIC: 4 µg/mL (≈ 12.1 µM)
Acinetobacter baumannii; Acinetobacter baumannii, AB05219 adeR103::T26
  MIC: 4 µg/mL (≈ 12.1 µM)
Acinetobacter baumannii; Acinetobacter baumannii, AB05222 adeR160::T101
  MIC: 2 µg/mL (≈ 6.04 µM)
Acinetobacter baumannii; Acinetobacter baumannii, AB05226 adeA165::T26
  MIC: 4 µg/mL (≈ 12.1 µM)
Acinetobacter baumannii; Acinetobacter baumannii, AB05227 adeA138::T26
  MIC: 2 µg/mL (≈ 6.04 µM)
Acinetobacter baumannii; Acinetobacter baumannii, AB05228 adeB150::T26
  MIC: 2 µg/mL (≈ 6.04 µM)
Acinetobacter baumannii; Acinetobacter baumannii, AB05230 adeB181::T26
  MIC: 2 µg/mL (≈ 6.04 µM)
Acinetobacter baumannii; Acinetobacter baumannii, BAA1709, BAA-1709, read-out: MIC
  MIC: 0.25 µg/mL (≈ 0.754 µM)
Acinetobacter baumannii; Acinetobacter baumannii, BAA1710, BAA-1710 (AYE), read-out: MIC
  MIC: 64 µg/mL (≈ 193 µM)
Acinetobacter baumannii; Acinetobacter baumannii, BAA2093, BAA-2093, read-out: MIC
  MIC: ≤ 0.125 µg/mL
Acinetobacter baumannii; Acinetobacter baumannii, NCTC10303, NCTC 10303, read-out: MIC
  MIC: 0.5 µg/mL (≈ 1.51 µM)
Acinetobacter baumannii; Acinetobacter baumannii, NCTC12156, NCTC 12156, read-out: MIC
  MIC: 1 µg/mL (≈ 3.02 µM)
Acinetobacter baumannii; Acinetobacter baumannii, NCTC13302, NCTC 13302, oxa24, read-out: MIC
  MIC: 32 µg/mL (≈ 96.6 µM)
Acinetobacter baumannii; Acinetobacter baumannii, NCTC13424, NCTC 13424, oxa23
  MIC: > 128 µg/mL
Acinetobacter baumannii; Acinetobacter baumannii, UKA1, oxa23, read-out: MIC
  MIC: 8 µg/mL (≈ 24.1 µM)
Acinetobacter baumannii; Acinetobacter baumannii, UKA2, Low resistance, read-out: MIC
  MIC: 64 µg/mL (≈ 193 µM)
Acinetobacter baumannii; Acinetobacter baumannii, UKA9, read-out: MIC
  MIC: 0.25 µg/mL (≈ 0.754 µM)
Acinetobacter baumannii; Acinetobacter baumannii, UKA12, oxa23
  MIC: > 128 µg/mL
Acinetobacter baumannii; Acinetobacter baumannii, UKA13, oxa23
  MIC: > 128 µg/mL
Acinetobacter baumannii; Acinetobacter baumannii, UKA15, oxa23, read-out: MIC
  MIC: 16 µg/mL (≈ 48.3 µM)
Acinetobacter baumannii; Acinetobacter baumannii, UKA19, read-out: MIC
  MIC: 8 µg/mL (≈ 24.1 µM)
Acinetobacter baumannii; Acinetobacter baumannii, W1, read-out: MIC
  MIC: 128 µg/mL (≈ 386 µM)
Acinetobacter baumannii; Acinetobacter baumannii, panel of 25 A. baumannii strains
  MIC50: 32 µg/mL (≈ 96.6 µM)
Acinetobacter baumannii; BAA-1710 (AYE), listed as 1
  MIC: > 128 µg/mL
